# Source: patent publication US20260176284A1, “Compounds with Anti-KRAS Mutated Tumor Activity” (Trasveda Ltd., priority 2022, published 2026)
# Experiments:
# HPAC cells = test: 3D proliferation inhibition of KRAS G12D mutated tumor cells, HPAC; format: cell-based, human; details: Homo sapiens, HPAC, 3D methylcellulose culture, CTG, 120 hours
# Description: (§1) This experiment evaluated and verified the proliferation inhibitory activity of the representative compounds of the present invention against the following five strains of KRAS-related tumor cells.
# (§2) The following materials, reagents and instruments were used in this experiment: Five strains of cells were all from Nanjing Kebai Biotechnology Co., Ltd. (GP2D, CBP60010; HPAC, CBP60539; AsPC-1, CBP60546; KP-4, CBP60541; Panc 04.03, CBP60683); DMEM (Gibco, 11965092); RPMI-1640 (Gibco, SH30809.01); HPAC complete medium (Cobioer, CBP60539M); Fetal bovine serum FBS (Gibco, 10091-148); Insulin (Gibco, 41400045); Methylcellulose (methylcellulose, Sigma, 9004-67-5); Phosphate-buffered saline DPBS (Comning, 21-031-CVC); CellTiter-Glo® Luminescent Cell Viability Assay (Promega, Cat #G7573); 96-well clear flat-bottom black-wall plate (Corning, 3603); EnVision multilabel plate reader (PerkinElmer #2105); CO2 incubator (Thermo Scientific, Model 3 71 Series).
# (§3) A sterilized 1% methylcellulose 3D culture medium was prepared in advance. The cells in the logarithmic growth phase were harvested, and a Countstar automatic cell counter based on the principle of the classic trypan blue staining method was used for cell counting and detecting cell viability to ensure that the cell viability was above 90%. The cell concentrations of GP2D, HPAC, AsPC-1, KP-f4, and Panc 04.03 were adjusted so that the final concentration of methylcellulose was 0.65%, and the mixture was allowed to stand after being well-mixed. After there were no visible air bubbles in the cell suspension, 80 μL of the cell suspension was added to each well of a 96-well plate, with a total of 1000-2000 cells. The cells in the 96-well plate were cultured overnight at 37° C., 5% CO2, and 95% humidity.
# (§4) Drug Preparation for IC50 Determination: First, a 10 mM DMSO stock solution of each compound was prepared. For the first dilution, using DMSO as the solvent, each compound was first diluted to 5 mM and then serially diluted 3-fold to obtain 9 concentrations, preparing DMSO solutions of each compound at different concentrations. For the second dilution, a 5-fold diluted solution of each compound was prepared by a 1:100 dilution, using the complete medium as the solvent. […]
# (§5) The cells in the 96-well plate with the added drugs were further cultured at 37° C. and 5% CO2 for 120 hours, and then a CTG analysis was performed. […] The cell plate was placed at room temperature for 20 minutes to stabilize the luminescence signal. The luminescence value was read, and the data were collected.
# (§6) The data were analyzed using GraphPad Prism 9.0 software. Non-linear S-curve regression was used to fit the data to obtain the dose-response curve, and the IC50 value (nM) was calculated accordingly. […]
# [1] = system: KRAS-G12D mutated human colon carcinoma cells GP2d; test: Antitumor effect, subcutaneous xenograft of KRAS-G12D mutated human colon carcinoma cells GP2d; format: in vivo; details: BALB/c nude mice, 10 mg/kg, gavage, twice a day
# Experimental: GP2d cells were purchased from Nanjing Kebai Biotechnology Co., Ltd. BALB/c nude mice, female, were purchased from Jiangsu GemPharmatech LLC. GP2d cells were cultured in culture medium containing DMEM and 10% FBS. The cells in the logarithmic growth phase were collected and resuspended in PBS to an appropriate concentration for subcutaneous tumor inoculation in mice. The experimental mice were subcutaneously inoculated on the right posterior side of the back. The inoculation dose of GP2d cells was 1×10^7 cells per mouse, and the cells were resuspended in a 1:1 mixture of PBS and Matrigel (the inoculation volume was 0.1 mL). When the average tumor volume grew to 150 mm^3, the mice were randomly grouped for administration according to the tumor size and body weight. Administration was started immediately after grouping, and the day of administration was regarded as day 0. The administration was carried out twice a day by gavage, at a dose of 10 mg/kg or a solvent control (0.5% Tween 80+99.5% of (0.5% MC (400 cp))). During the experiment, the body weight of the mice and the size of the tumors were measured twice a week.
# The formula for calculating the tumor size: Tumor volume (mm^3)=0.5×(long diameter of tumor×(short diameter of tumor)^2).
# Relative tumor inhibition rate TGI (%): TGI %=[1−(average tumor volume at the end of administration of the treatment group−average tumor volume at the beginning of administration of the treatment group)/(average tumor volume at the end of administration of the vehicle control group −average tumor volume at the beginning of administration of the vehicle control group)]×100%.
# AsPC-1 cells = test: 3D proliferation inhibition of KRAS G12D mutated tumor cells, AsPC-1; format: cell-based; details: Homo sapiens, ASPC1, 3D methylcellulose culture, CTG, 120 hours
# Description: as §1, §2
# as §3, with “After there were no visible air bubbles in the cell suspension, 80 μL of the cell suspension was added to each well of a 96-well plate, with a total of 1000-2000 cells. The cells in the 96-well plate were cultured overnight at 37° C., 5% CO2, and 95% humidity.” left out
# as §5, §6
# Panc 04.03 cells = test: 3D proliferation inhibition of KRAS G12D mutated tumor cells, Panc 04.03; format: cell-based; details: Homo sapiens, Panc 04.03, 3D methylcellulose culture, CTG, 120 hours
# Description: as §1, §2, §3, §4, §5, §6
# GP2D cells = test: 3D proliferation inhibition of KRAS G12D mutated tumor cells, GP2D; format: cell-based, human; details: Homo sapiens, GP2d, 3D methylcellulose culture, CTG, 120 hours
# Description: as §1, §2, §3, §4, §5, §6
# KP-4 cells = test: 3D proliferation inhibition of KRAS G12D mutated tumor cells, KP-4; format: cell-based; details: Homo sapiens, KP-4, 3D methylcellulose culture, CTG, 120 hours
# Description: as §1, §2, §3, §4, §5, §6
# [2] = system: human pancreatic cancer cells HPAC (carrying KRas G12D mutant protein); test: In vivo pharmacodynamics, subcutaneous xenograft of human pancreatic cancer cells HPAC; details: NOD/SCID mice, 50 mpk, PO
# Experimental: The following materials were used in this experiment: NOD/SCID mice, 6-8 weeks old, female, Jiangsu Ji Cai Yao Kang Biotechnology Co., Ltd.; HPAC cells (carrying KRas G12D mutant protein, ATCC); Captisol (Wuhan Fengyao Tonghui Chemical Products Co., Ltd., Cas #182410-00-0); Sodium acetate (aladdin); MC (sigma, 9004-67-5).
# The experiment was carried out as follows: Female NOD/SCID mice aged 6-8 weeks were subcutaneously inoculated with 1-10^7 HPAC cells on the right posterior side of the back, with an inoculation volume of 0.1 mL. When the tumors grew to an average volume of 150 mm^3, the mice were randomly grouped for administration according to the tumor size and body weight. The day of administration was regarded as day 0. The administration was carried out once a day. The test compound was administered by tail vein injection or gavage, with 5 mice in each group at a dose of 10 mg/kg. The control group was administered with an equal volume of the solvent control by tail vein injection or gavage.
# During the experiment, the tumor volume and body weight were measured twice a week. The formula for calculating the tumor volume was: Tumor volume (mm^3)=0.5×(tumor major axis×tumor minor axis^2). The average tumor inhibition rate TGI %=[(average tumor volume of the control group−average initial tumor volume of the control group)−(average tumor volume of the administration group−average initial tumor volume of the administration group)]/(average tumor volume of the control group−average initial tumor volume of the control group).
# [3] = system: KRAS G12D mutated AGS human gastric adenocarcinoma cells; test: Proliferation inhibition of KRAS G12D mutant AGS cells, another experiment with similar protocol (includes MRTX1133); format: cell-based; details: Homo sapiens
# Experimental: In another experiment, using a protocol similar to the one described above, the inhibitory activity of some representative compounds of the present invention against KRAS G12D mutated AGS human gastric adenocarcinoma cells was determined.
# The synthesis of compound MRTX1133 was performed according to the method described in J. Med. Chem. 2022, 65, 4, 3123-3133.
# [4] = Mouse pharmacokinetics (IV and PO); format: in vivo; details: 10 mg/kg, male CD-1 mice, PO (gavage), 1 mg/mL at 10 mL/kg, plasma
# Experimental: The pharmacokinetic properties of the compounds of the present invention were evaluated through a mouse pharmacokinetic experiment.
# Male CD-1 mice, aged 6-8 weeks old, were purchased from Zhejiang Vital River Laboratory Animal Co., Ltd.
# IV administration group: The compound was formulated into a sodium acetate buffer solution (10 mM sodium acetate solution, adjusted to pH 4.0 with acetic acid) containing 20% Captisol (sulfobutyl β-cyclodextrin) so that the final concentration of each compound was 0.6 mg/mL. The drug formulation was injected into the tail vein of CD-1 mice at an injection volume of 5 mL/kg. After administration, blood samples were collected from the submandibular vein or by other appropriate methods at 5 min, 15 min, 30 min, 1 h, 2 h, 4 h, 6 h, 8 h, and 24 h. The blood samples were centrifuged at a low temperature for 6 minutes, and the plasma was collected and stored at −80° C. for testing. The PO administration group formulated the compound into a solvent of 0.5% Tween 80+99.5% (0.5% MC (400 cp)) or 5% DMSO+95% (0.5% MC (400 cp)) so that the final concentration of each compound was 1 mg/mL. The drug formulation was administered to CD-1 mice by gavage at a volume of 10 mL/kg. After administration, blood samples were collected from the submandibular vein or by other appropriate methods at 15 min, 30 min, 1 h, 2 h, 4 h, 6 h, 8 h, and 24 h. The blood samples were centrifuged at a low temperature for 6 minutes, and the plasma was collected and stored at −80° C. for testing.
# 10 μL of the plasma sample was taken, and 200 μL of methanol containing an internal standard was added as a precipitating agent to precipitate plasma proteins and extract the compounds to be tested in the plasma. After centrifugation at a low temperature, 10 μL of the supernatant was injected, and the drug blood concentration was analyzed by LC-MS/MS. The pharmacokinetic parameters were calculated using Winnonlin based on the drug concentration data at different time points.
Compound,IC50 (HPAC cells),Tumor volume (mm3) (Day 21) [1],TGI (%) ([1]; Day 21),IC50 (AsPC-1 cells),IC50 (Panc 04.03 cells),IC50 (GP2D cells),IC50 (KP-4 cells),Tumor volume (mm3) (Day 20) ([2]; BID × 21),"TGI (%) ([2]; BID × 21, Day 20)",IC50 [3],AUC(0-inf) [4],AUC(0-t) [4],half-life [4]
"[2H]C([2H])([2H])N1CC[C@H](C(F)F)[C@](C)(C([2H])([2H])Oc2nc(N3CC4CCC(C3)N4)c3cc(C(F)(F)F)c(-c4cccc5sc(N)c(C#N)c45)c(F)c3n2)C1 (single isomer, unassigned) [Example 321-1]",5.38 nM,70 mm3,109%,1.38 nM,1.36 nM,0.43 nM,4.74 nM,,,,,,
"C#Cc1c(F)ccc2cc(O)cc(-c3ncc4c(N5C[C@H]6CC[C@@H](C5)N6)nc(OC[C@]5(C)CN(C)CC/C5=C\F)nc4c3F)c12 [Example 103, 4-(4-((1R,5S)-3,8-diazabicyclo[3.2.1]octan-3-yl)-8-fluoro-2-(((S,E)-4-(fluoromethylene)-1,3-dimethylpiperidin-3-yl)methoxy)pyrido[4,3-d]pyrimidin-7-yl)-5-ethynyl-6-fluoronaphthalen-2-ol]",1.44 nM,,,2.09 nM,2.12 nM,0.42 nM,6.92 nM,77 mm3,112%,4 nM,704 ng·h/mL,653 ng·h/mL,8.15 h
